Patent US12071425B2 (Genentech, Inc., priority 2018, dated 2024)
Structures can show the parent of a compound that is named as a salt.

Biological target: kinase domain of IRE1 alpha (His-tagged kinase dead construct KR, AA G547-L977, D688N) (Homo sapiens (Human), UniProt O75460, D688N)
Test: IRE1α TR-FRET competition binding assay
Settings: competition with Kinase Tracer 236, 0.1 μM; one hour at room temperature
How it was run: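 Compound displacement of an ATP-site fluorescent tracer (0.1 μM final) measured by TR-FRET after 1 h at room temperature. Protein, a His-tagged D688N kinase/RNase construct from Sf9 cells (0.006 μM final), was pre-bound 1 h at 4° C to Eu anti-His antibody (0.002 μM) in pH 7.5 HEPES buffer.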

Chain of kinase domain of IRE1 alpha (His-tagged kinase dead construct KR, AA G547-L977, D688N) (O75460 547-977 D688N): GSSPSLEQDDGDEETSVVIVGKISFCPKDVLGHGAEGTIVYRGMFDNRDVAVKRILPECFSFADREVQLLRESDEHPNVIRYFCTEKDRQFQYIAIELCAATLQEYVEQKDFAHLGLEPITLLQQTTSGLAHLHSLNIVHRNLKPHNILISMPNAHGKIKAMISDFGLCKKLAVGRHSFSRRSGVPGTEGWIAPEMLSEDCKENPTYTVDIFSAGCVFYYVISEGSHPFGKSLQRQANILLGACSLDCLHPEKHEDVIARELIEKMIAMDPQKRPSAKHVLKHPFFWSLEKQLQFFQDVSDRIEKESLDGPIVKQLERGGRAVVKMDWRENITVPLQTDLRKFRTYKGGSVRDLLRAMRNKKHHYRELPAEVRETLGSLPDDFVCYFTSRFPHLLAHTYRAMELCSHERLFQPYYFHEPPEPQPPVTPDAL

Row | SMILES | IC50 [nM]
1 | N#Cc1ccc(S(=O)(=O)Nc2ccc(Oc3ncccc3-c3ccnc(N[C@H]4CCCNC4)n3)c(F)c2F)cc1 [Compound 219, (S)-4-cyano-N-(2,3-difluoro-4-((3-(2-(piperidin-3-ylamino)pyrimidin-4-yl)pyridin-2-yl)oxy)phenyl)benzenesulfonamide] | 53
2 | NCCNc1nccc(-c2cccnc2Oc2ccc(NS(=O)(=O)Cc3ccccc3)c(F)c2F)n1 [Compound 171, N-(4-((3-(2-((2-aminoethyl)amino)pyrimidin-4-yl)pyridin-2-yl)oxy)-2,3-difluorophenyl)-1-phenylmethanesulfonamide] | 180
3 | CN(C)C1CCC(Nc2nccc(-c3cccnc3Oc3cc(F)c(NS(=O)(=O)Cc4ccccc4)c(F)c3F)n2)CC1F (single isomer, unassigned) [Compound 306, N-(4-((3-(2-((4-(Dimethylamino)-3-fluorocyclohexyl)amino)pyrimidin-4-yl)pyridin-2-yl)oxy)-2,3,6-trifluorophenyl)-1-phenylmethanesulfonamide] | 43
4 | Cc1cc(Oc2ncccc2-c2ccnc(N[C@H]3CCCNC3)n2)c(C)cc1NS(=O)(=O)c1ccccc1Cl [Compound 125, (S)-2-chloro-N-(2,5-dimethyl-4-((3-(2-(piperidin-3-ylamino)pyrimidin-4-yl)pyridin-2-yl)oxy)phenyl)benzenesulfonamide] | 27
5 | CC(F)C1CNCC(Nc2nccc(-c3cccnc3Oc3cc(F)c(NS(=O)(=O)Cc4ccccc4)c(F)c3F)n2)C1 (single isomer, unassigned) [Compound 347, 1-Phenyl-N-(2,3,6-trifluoro-4-((3-(2-((5-(1-fluoroethyl)piperidin-3-yl)amino)pyrimidin-4-yl)pyridin-2-yl)oxy)phenyl)methanesulfonamide] | 49
6 | O=S(=O)(Cc1ccccc1)Nc1c(F)cc(Oc2ncccc2-c2ccnc(NC3CNCC(CF)C3)n2)c(F)c1F (single isomer, unassigned) [Compound 277, 1-Phenyl-N-(2,3,6-trifluoro-4-((3-(2-((5-(fluoromethyl)piperidin-3-yl)amino)pyrimidin-4-yl)pyridin-2-yl)oxy)phenyl)methanesulfonamide] | 27
7 | O=S(=O)(CC1CCCCC1)Nc1ccc(Oc2ncccc2-c2ccnc(N[C@H]3CCCNC3)n2)c(F)c1F [Compound 145, (S)-1-Cyclohexyl-N-(2,3-difluoro-4-((3-(2-(piperidin-3-ylamino)pyrimidin-4-yl)pyridin-2-yl)oxy)phenyl)methanesulfonamide hydrochloride] | 7.8
8 | O=S(=O)(Cc1ccccc1F)Nc1c(F)cc(Oc2ncccc2-c2ccnc(N[C@@H]3CNC[C@@H](F)C3)n2)c(Cl)c1F [Compound 332, N-(3-Chloro-2,6-difluoro-4-((3-(2-(((3S,5S)-5-fluoropiperidin-3-yl)amino)pyrimidin-4-yl)pyridin-2-yl)oxy)phenyl)-1-(2-fluorophenyl)methanesulfonamide] | 56
9 | O=S(=O)(CCC1CCCCC1)Nc1ccc(Oc2ncccc2-c2ccnc(N[C@H]3CCCNC3)n2)c(F)c1F [Compound 215, (S)-2-cyclohexyl-N-(2,3-difluoro-4-((3-(2-(piperidin-3-ylamino)pyrimidin-4-yl)pyridin-2-yl)oxy)phenyl)ethane-1-sulfonamide] | 11
10 | O=C1CC[C@H](Nc2nccc(-c3cccnc3Oc3ccc(NS(=O)(=O)Cc4ccccc4)c(F)c3F)n2)CN1 [Compound 181, (S)-N-(2,3-difluoro-4-((3-(2-((6-oxopiperidin-3-yl)amino)pyrimidin-4-yl)pyridin-2-yl)oxy)phenyl)-1-phenylmethanesulfonamide] | 36
11 | Cc1cc(NC(=O)C2CC2)cc(F)c1Oc1ncccc1-c1ccnc(N[C@H]2CC[C@H](N)CC2)n1 [Compound 120, N-(4-((3-(2-(((1r,4r)-4-aminocyclohexyl)amino)pyrimidin-4-yl)pyridin-2-yl)oxy)-3-fluoro-5-methylphenyl)cyclopropanecarboxamide hydrochloride] | 110
12 | COC1CNCC(Nc2nccc(-c3cccnc3Oc3cc(F)c(NS(=O)(=O)Cc4ccccc4)c(F)c3F)n2)C1 (single isomer, unassigned) [Compound 317, 1-Phenyl-N-(2,3,6-trifluoro-4-((3-(2-((5-methoxypiperidin-3-yl)amino)pyrimidin-4-yl)pyridin-2-yl)oxy)phenyl)methanesulfonamide] | 140

Compounds with a lower IC50, results first:

Row | IC50 [nM] | SMILES
13 | 6.6 | N#Cc1c(NS(=O)(=O)Cc2ccccc2)ccc(Oc2ncccc2-c2ccnc(N[C@H]3CCCNC3)n2)c1F [Compound 163, (S)-N-(2-cyano-3-fluoro-4-((3-(2-(piperidin-3-ylamino)pyrimidin-4-yl)pyridin-2-yl)oxy)phenyl)-1-phenylmethanesulfonamide hydrochloride]
14 | 1.8 | O=S(=O)(Cc1ccccc1)Nc1c(F)cc(Oc2ncccc2-c2ccnc(NC3CNCC4(C3)CC4(F)F)n2)c(F)c1F (single isomer, unassigned) [Compound 298, N-(4-((3-(2-((1,1-Difluoro-5-azaspiro[2.5]octan-7-yl)amino)pyrimidin-4-yl)pyridin-2-yl)oxy)-2,3,6-trifluorophenyl)-1-phenylmethanesulfonamide]
15 | 0.29 | Cc1ccc(CS(=O)(=O)Nc2cc(F)c(Oc3ncccc3-c3ccnc(N[C@@H]4CNC[C@@](C)(F)C4)n3)c(C)c2F)cc1 [Compound 311, N-(2,5-Difluoro-4-((3-(2-(((3S,5S)-5-fluoro-5-methylpiperidin-3-yl)amino)pyrimidin-4-yl)pyridin-2-yl)oxy)-3-methylphenyl)-1-(p-tolyl)methanesulfonamide]
16 | 5.9 | O=S(=O)(Cc1ccc(Cl)cc1)Nc1ccc(Oc2ncccc2-c2ccnc(N[C@H]3CCCNC3)n2)c(F)c1F [Compound 213, (S)-1-(4-chlorophenyl)-N-(2,3-difluoro-4-((3-(2-(piperidin-3-ylamino)pyrimidin-4-yl)pyridin-2-yl)oxy)phenyl)methanesulfonamide]
17 | 3.8 | Cc1c(Oc2ncccc2-c2ccnc(N[C@H]3CCCNC3)n2)cc(F)c(NS(=O)(=O)Cc2ccccc2)c1F [Compound 154, (S)-N-(2,6-difluoro-3-methyl-4-(3-(2-(piperidin-3-ylamino)pyrimidin-4-yl)pyridin-2-yloxy)phenyl)(phenyl)methanesulfonamide hydrochloride]
18 | 4.3 | N#Cc1ccc(CS(=O)(=O)Nc2c(F)cc(Oc3ncccc3-c3ccnc(N[C@@H]4CNC[C@@H](F)C4)n3)c(F)c2F)cc1 [Compound 191, 1-(4-cyanophenyl)-N-(2,3,6-trifluoro-4-((3-(2-(((3S,5S)-5-fluoropiperidin-3-yl)amino)pyrimidin-4-yl)pyridin-2-yl)oxy)phenyl)methanesulfonamide]
19 | 4 | Cc1c(Oc2ncccc2-c2ccnc(N[C@@H]3CNC[C@H](C)C3)n2)cc(F)c(NS(=O)(=O)Cc2ccccc2)c1F [Compound 164, N-(2,6-Difluoro-3-methyl-4-((3-(2-(((3S,5R)-5-methyl-3-piperidyl)amino)pyrimidin-4-yl)-2-pyridyl)oxy)phenyl)-1-phenyl-methanesulfonamide]
20 | 6.9 | C[C@]1(F)CNC[C@@H](Nc2nccc(-c3cccnc3Oc3ccc(NS(=O)(=O)Cc4ccccc4)c(F)c3F)n2)C1 [Compound 162, N-(2,3-difluoro-4-((3-(2-(((3S,5R)-5-fluoro-5-methylpiperidin-3-yl)amino)pyrimidin-4-yl)pyridin-2-yl)oxy)phenyl)-1-phenylmethanesulfonamide]
21 | 3.3 | Cc1cc(CS(=O)(=O)Nc2c(F)cc(Oc3ncccc3-c3ccnc(N[C@@H]4CNC[C@@](C)(F)C4)n3)c(F)c2F)no1 [Compound 203, 1-(5-methylisoxazol-3-yl)-N-(2,3,6-trifluoro-4-((3-(2-(((3S,5S)-5-fluoro-5-methylpiperidin-3-yl)amino)pyrimidin-4-yl)pyridin-2-yl)oxy)phenyl)methanesulfonamide]
22 | 5.4 | Cc1cc(Oc2ncccc2-c2ccnc(N[C@H]3CCCNC3)n2)c(F)c(F)c1NS(=O)(=O)Cc1ccccc1 [Compound 160, (S)-N-(2,3-difluoro-6-methyl-4-((3-(2-(piperidin-3-ylamino)pyrimidin-4-yl)pyridin-2-yl)oxy)phenyl)-1-phenylmethanesulfonamide]
23 | 4.4 | O=S(=O)(CCC(F)(F)F)Nc1c(F)cc(Oc2ncccc2-c2ccnc(N[C@@H]3CNC[C@@H](F)C3)n2)c(F)c1F [Compound 205, 3,3,3-trifluoro-N-(2,3,6-trifluoro-4-((3-(2-(((3S,5S)-5-fluoro-3-piperidyl)amino)pyrimidin-4-yl)-2-pyridyl)oxy)phenyl)propane-1-sulfonamide]
24 | 4.6 | O=S(=O)(Cc1ccccc1)Nc1ccc(Oc2ncccc2-c2ccnc(N[C@@H]3CNC[C@@H](F)C3)n2)c(F)c1F [Compound 112, N-(2,3-difluoro-4-((3-(2-(((3S,5S)-5-fluoropiperidin-3-yl)amino)pyrimidin-4-yl)pyridin-2-yl)oxy)phenyl)-1-phenylmethanesulfonamide]
25 | 0.8 | N#Cc1ccc(CS(=O)(=O)Nc2c(F)cc(Oc3ncccc3-c3ccnc(N[C@@H]4CNC[C@@H](F)C4)n3)c(F)c2F)c(F)c1 [Compound 360]
26 | 0.24 | CC(F)(F)C1CNCC(Nc2nccc(-c3cccnc3Oc3cc(F)c(NS(=O)(=O)Cc4ccccc4)c(F)c3F)n2)C1 (single isomer, unassigned) [Compound 339, N-(4-((3-(2-((5-(1, l-Difluoroethyl)piperidin-3-yl)amino)pyrimidin-4-yl)pyridin-2-yl)oxy)-2,3,6-trifluorophenyl)-1-phenylmethanesulfonamide]
27 | 6.5 | CCC(F)(F)CS(=O)(=O)Nc1ccc(Oc2ncccc2-c2ccnc(N[C@H]3CCCNC3)n2)c(F)c1F [Compound 148, (S)-N-(2,3-Difluoro-4-((3-(2-(piperidin-3-ylamino)pyrimidin-4-yl)pyridin-2-yl)oxy)phenyl)-2,2-difluorobutane-1-sulfonamide hydrochloride]
